Measured values as given in patent publication US11376257B2, “Generation of muscle lineage cells and therapeutic uses thereof” (GENEA BIOCELLS USA (HOLDINGS), INC., priority 2016, dated 2022).
“Also recorded” adds a separate entry of the source. Read-outs that look alike come from different tables or passages of the source.

How the values were obtained:
[1] = system: stem cell-derived myoblasts; details: for production of myotubes with mature features (summary of FIGS. 10-18): different doses in Myotube Medium; for production of myotubes with mature features (summary of FIGS. 10-18) / myotube morphology (visual) versus control cultures: 5 days
Description: For screening, frozen satellite-like cells, prepared as described in Example 1, were thawed in a water bath at 37° C., resuspended in 3 mL of warm Myoblast Medium (Genea Biocells) and centrifuged at 400×g for 4 min. The supernatant was removed and the cell pellet was resuspended in 1 mL of medium for cell count. Cells were seeded at a density of 5,000 cells/cm^2 in collagen I-coated plastic flasks (Biocoat, BD Bioscience) and incubated at 5% CO2, 37° C. Every other day the culture medium was exchanged until cells reached a confluency of 80%, then cells were trypsinized, counted and seeded in collagen-coated 96-well plate (Biocoat) at density of 30,000 cells/cm^2 in Myoblast Medium using an automated liquid handling system (Fluent, Tecan Trading AG, Switzerland). Cells were incubated at 5% CO2, 37° C. and the medium was changed every other day until cells reached a confluence of 80%. The medium was exchanged for Myotube Medium (Genea Biocells) containing the test compounds. No further media changes were performed. In general, 3 to 6 concentrations were tested ranging from 3 μM to 1 nM; one plate per dilution was used. Media and DMSO control wells were placed randomly. No media changes were performed at this stage. After five days of myotube differentiation in the presence of compounds, cells were fixed with 10% formalin (Sigma) for 15 minutes at room temperature and washed once with phosphate-buffered saline (PBS). Next, cells were stained with an antibody specific for myosin heavy chain (Developmental Studies of Hybridoma Bank, University of Iowa, Iowa City; anti mouse A4.1519; dilution 1:1000) in PBS solution containing 5% bovine serum albumin (BSA, Sigma) and 0.3% Triton-X (Sigma) and incubated for 1 hour at room temperature. The cells were washed once with PBS and then incubated for 1 hour with a second antibody, Alexa Fluor 488-conjugated goat anti-mouse IgG (Invitrogen, 1:1000), and counterstained for nuclei with Hoechst 33342 (Molecular probes 1:5000) in a PBS solution containing 5% BSA and 0.3% Triton-X. Cells were washed with PBS prior microscopic analysis. Cells were imaged using an IN Cell Analyzer 6000 (GE-Healthcare) high content analysis system. Developer Toolbox v1.9.3 was utilized for image analysis to determine the number of nuclei, and the number of nuclei within MHC-positive myotubes. To evaluate the effect of compounds in either decrease or increase these measures untreated controls were set as the baseline.
Myoblasts were prepared or frozen myoblasts were thawed as described in Example 4. Once cultures reached confluency the medium was changed to Myotube Medium supplemented with 0.2, 0.5 or 1 μM CHIR-124 (Chk1 inhibitor). The cultures were left in an incubator at 37° C. and 5% CO2 for 5 days. […] Cells were fixed with 10% formalin (Sigma) for 15 minutes at room temperature and washed once with phosphate-buffered saline (PBS). Next, cells were stained for with antibodies specific for myosin heavy chain (Developmental Studies of Hybridoma Bank, University of Iowa, Iowa City; anti mouse A4.1519; dilution 1:1000) and MyoG (Santa Cruz, anti-rabbit; dilution 1:500) in PBS solution containing 5% bovine serum albumin (BSA, Sigma) and 0.3% Triton-X (Sigma) and incubated for 1 hour at room temperature. The cells were washed once with PBS and then incubated for 1 hour with a second antibody, Alexa Fluor 488-conjugated goat anti-mouse IgG and Alexa Fluor 647-conjugated anti-rabbit (both Invitrogen, 1:1000), and counterstained for nuclei with Hoechst 33342 (Molecular probes 1:5000) in a PBS solution containing 5% BSA and 0.3% Triton-X. Cells were washed with PBS prior to microscopic analysis. Cells were imaged using an IN Cell Analyzer 6000 (GE-Healthcare) high content analysis system.

[2] = system: myoblasts from non-affected and genetic disease-affected hESC cell lines; experiment: Myotube formation in disease-affected and non-affected hESC-derived myoblasts with or without CHIR-124; assay type: cell-based, human; details: 0.5 μM CHIR-124, three days in Myotube Medium, all cell lines (unaffected, Huntington's, DM1, DM2, SMA, FSH, DMD)
Description: Myoblasts prepared via the method of Example 4 from two non-affected hESC cell lines (Genea002 and Genes019) and six verified genetic disease-affected cell lines (Genea020, Genea066, Gen103, Gen158, Gen049 and Gen159, described in Table 6 below) were thawed in Genea Biocells Myoblast Medium in 96-well microtiter plates at 3.0×10^4 cells/cm2 and incubated at 10% CO2, 37° C. Genea020 was derived from an embryo affected with Huntington's disease (48CAG repeat expansion in the Huntingtin gene). Genea066 was derived from an embryo affected with Myotonic Dystrophy type II. Genea103 was derived from an embryo affected with Spinal Muscular Atrophy. Genea158 was derived from an embryo affected with Myotonic Dystrophy type I. Genea049 was derived from an embryo affected with FSH Muscular Dystrophy. Genea159 was derived from an embryo affected with Duchenne muscular dystrophy. All hESC cell lines were derived according to approved ethical protocols from donated embryos. Once cells (myoblasts) were confluent (approximately on day 3) media was changed for Genea Biocells Myotube Medium, either alone or with 0.5 μM CHIR-124 (CHIR). […] Images were analyzed with IN Cell Developer Toolbox software (GE Healthcare). […] The ratio between area of MHC and nuclei (um2) was calculated by measuring the area per field divided by the number of nuclei within that field.

[3] = system: myosin heavy chains (MHC) in Genea015 myoblast-derived myotubes; experiment: Western blot analysis of myosin heavy chain types in myotubes; assay type: cell-based, human
Description: Genea015 (a disease-unaffected hESC cell line) myoblasts prepared by the method of Example 4 were thawed and seeded at 30,000 cells/cm^2 in Genea Biocells Myoblast Medium and incubated at 37° C., 5% CO2 until confluent (approximately 2 days). Then media was changed for Genea Biocells Myotube Medium either alone or with […] CHIR-124. Cell lysates for protein analysis were collected 5 days after treatment with CHIR-124 and quantified by BCA assay (ThermoFisher). Western blotting (Wes, Protein Simple) was performed to analyze the expression of myosin heavy chains (MHC) that are expressed during development and maturation of myotubes (total MHC, or total myosin heavy chain; eMHC, or embryonic myosin heavy chain; fMHC, or foetal myosin heavy chain; pMHC, or perinatal myosin heavy chain; and fast MHC, or fast myosin heavy chain, the most mature MHC found in myotubes). MHC expression was normalized to Vinculin for quantification.

[4] = system: Duchenne Muscular Dystrophy (DMD); experiment: Treatment of a Duchenne Muscular Dystrophy patient with a checkpoint inhibitor; assay type: in vivo, human; details: child with DMD
Description: A child diagnosed with Duchenne Muscular Dystrophy (DMD) is seen in a clinic for weakness in their calves and thighs.
A child diagnosed with Duchenne Muscular Dystrophy (DMD) is seen in a clinic for weakness in their calves and thighs. To treat the muscle weakness, the patient is administered 100 mg once daily of CHIR-124 or 50-75 mg twice daily of CHIR-124 for two months. At the initial appointment, skin fibroblasts are obtained from the patient. The fibroblasts are subsequently used to produce induced pluripotent stem cells (iPSCs), which are then genetically modified to remove a mutation associated with DMD. The iPSCs are then differentiated into satellite cells in vitro; and the satellite cells, in turn, are differentiated into myoblasts in vitro. The differentiated myoblasts are then administered in […] doses to the patient's thighs and calves once a week during the two month period.

[5] = 0.5 μM CHIR-124, 5 days, Genea015

O=c1[nH]c2ccc(Cl)cc2c(NC2CN3CCC2CC3)c1-c1nc2ccccc2[nH]1 (centres unmarked) [CHIR-124]
myotube morphology (visual) ([1]; 0.2 μM, 0.5 μM, or 1 μM CHIR-124, 5 days): formed thick, large myotubes
number of myotubes observed ([1]; 1 μM CHIR-124, 5 days): overall fewer myotubes were observed
larger average myotube diameter compared to myotubes formed in the absence of CHIR-124 ([1]; 0.2 or 0.5 μM CHIR-124, 5 days): > 80%
average number of nuclei per myotube ([1]; 0.2 or 0.5 μM CHIR-124, 5 days, 2 without CHIR-124): about 4
mean area of myotubes (FIG. 10D, lower panel) ([1]; CHIR-124, 5 days): Increases
myotube area (FIG. 10C, lower panel) ([1]; CHIR-124, 5 days): Increases
number of cells with larger myotube area (FIG. 10D, upper panel) ([1]; CHIR-124, 5 days): Increases
number of cells with more than one nucleus (FIG. 10B, lower panel) ([1]; CHIR-124, 5 days): Increases
production of myotubes with mature features (summary of FIGS. 10-18) [1]: produce myotubes with mature features
nuclei contained in many myotubes ([1]; exposed to CHIR-124, untreated controls few cells exceeding 10-12 nuclei): more than 30
myotube formation as MHC staining area normalized to cell number (nuclei) [2]: improved myotube formation; also recorded: improvements in differentiation
myotube formation as MHC staining area normalized to cell number (nuclei) ([2]; listed as CHIR124): higher
expression of fast MHC (fast myosin heavy chain) [3, 5]: increases in expression
expression of total MHC normalized to Vinculin [3, 5]: increases expression
expression of pMHC (perinatal myosin heavy chain) ([3]; 0.5 M CHIR-124, 5 days, Genea015): increases in expression
expression of the most mature forms of MHC (FIG. 20) ([3]; in the presence of CHIR-124): increased expression
symptoms of muscle weakness ([4]; 100 mg once daily or 50-75 mg twice daily for two months): symptoms of muscle weakness improve
muscle tone ([4]; CHIR-124 for two months combined with genetically modified iPSC-derived myoblasts once a week): improved muscle tone

CC(C)c1noc(N2CCC(COc3ccc(-c4ccc(S(C)(=O)=O)cc4)nc3)CC2)n1 [GSK1292263]
myotube morphology (visual) versus control cultures ([1]; 0.1, 0.3 or 1 M): formed longer and thicker myotubes than control cultures
production of myotubes with mature features (summary of FIGS. 10-18) [1]: produce myotubes with mature features

Cn1cnc2c(F)c(Nc3ccc(Br)cc3F)c(C(=O)NOCCO)cc21 [MEK162, binimetinib]
myotube morphology (visual) versus control cultures ([1]; 0.1, 0.3 or 1 μM): formed more and longer and thicker myotubes than control cultures
production of myotubes with mature features (summary of FIGS. 10-18) [1]: produce myotubes with mature features

COc1ccncc1C(=O)NC(=O)Nc1ccc(-c2ccccc2)c(C(F)(F)F)c1 [TC-G 1006]
myotube morphology (visual) versus control cultures ([1]; 0.1, 0.3 or 1 M): formed longer and thicker myotubes than control cultures
production of myotubes with mature features (summary of FIGS. 10-18) [1]: produce myotubes with mature features

CN1[C@@H]2CC[C@H]1C[C@@H](OC(=O)C(CO)c1ccccc1)C2 (some centres unmarked) [atropine]
myotube morphology (visual) versus control cultures ([1]; 0.2, 0.5 or 1 μM atropine): formed longer and thicker myotubes than control cultures
number of myotubes observed ([1]; cultures incubated with atropine): overall fewer myotubes were observed
production of myotubes with mature features (summary of FIGS. 10-18) [1]: produce myotubes with mature features

CC[C@@H]1C(=O)OC[C@@H]1Cc1cncn1C [pilocarpine]
myotube morphology (visual) versus control cultures ([1]; 0.1, 03 or 1 μM pilocarpine): formed longer and thicker myotubes than control cultures
production of myotubes with mature features (summary of FIGS. 10-18) [1]: produce myotubes with mature features

CO[C@H]1C[C@@H]2CC[C@@H](C)[C@@](O)(O2)C(=O)C(=O)N2CCCC[C@H]2C(=O)O[C@H]([C@H](C)C[C@@H]2CC[C@@H](O)[C@H](OC)C2)CC(=O)[C@H](C)/C=C(\C)[C@@H](O)[C@@H](OC)C(=O)[C@H](C)C[C@H](C)/C=C/C=C/C=C/1C [rapamycin]
myotube morphology (visual) versus control cultures ([1]; 0.1, 0.3 or 1 μM): formed more and longer and thicker myotubes than control cultures
production of myotubes with mature features (summary of FIGS. 10-18) [1]: produce myotubes with mature features

CNC(=O)c1cc(Oc2ccc(NC(=O)Nc3ccc(Cl)c(C(F)(F)F)c3)cc2)ccn1 [sorafenib]
myotube morphology (visual) versus control cultures ([1]; 0.1, 0.3 or 1 μM): formed more and longer and thicker myotubes than control cultures
production of myotubes with mature features (summary of FIGS. 10-18) [1]: produce myotubes with mature features

talazoparib
myotube morphology (visual) versus control cultures ([1]; 0.1, 0.3 or 1 μM Talazoparib): formed more and longer myotubes than control cultures
production of myotubes with mature features (summary of FIGS. 10-18) [1]: produce myotubes with mature features
